{
  "source": "patent US8816065B2",
  "about": "“Pharmaceutical or cosmetic composition containing nicotinic acid adenine dinucleotide phosphate or derivative thereof” (Damy Chemical Co., Ltd., priority 2010, dated 2014)",
  "key": {"[1]": {"test_system": "involucrin, keratin 1, and keratin 10 in primarily cultured epidermal keratinocyte neonatal", "experiment": "Expression of keratinocyte differentiation markers by western blotting", "type": "cell-based, human", "protocol": "An effect of NAADP on promoting cell differentiation was tested by measuring the expression of differentiation markers (involucrin, keratin 1, and keratin 10) generated during the differentiation of the keratinocytes by using a western blotting method.\nPrimarily cultured epidermal keratinocyte neonatal was put into a culture flask and attached to the bottom thereof, and then cultured for 5 days until the cells grew to cover about 70% to 80% of an area of the bottom by adding NAADP diluted for each concentration and retinol acid as a control group into a culture medium. The cells were harvested and cleaned with phosphate buffered saline (PBS). Next, precipitates obtained by adding 1 ml of a 10 mM tris-HCl (pH 7.4) buffer solution containing 2% sodium dodecyl sulfate (SDS) and 20 mM dithiothreitol (DTT) and being subjected to sonication, boiling, and centrifugation were again suspended in 1 ml of PBS. A content of protein in the suspension was measured and used as a criterion during the evaluation of a degree of cell differentiation. The results of tests performed by using a group treating the epidermal keratinocyte neonatal (5×10^5 cells) with retinol acid (1 μM) as a positive control group and adding each NAADP having different concentration (10 pM to 10 μM) to a low calcium concentration are presented in the following FIG. 2."}, "[2]": {"test_system": "Epidermal keratinocyte neonatal (NHEK-Np)", "experiment": "Increase in intracellular calcium in cultured keratinocytes (fluo-3 AM, confocal microscopy)", "type": "cell-based, human", "protocol": "In the present example, an efficacy in inducing an increase in intracellular calcium was evaluated when cultured keratinocytes were treated with NAADP in order to confirm an effect of recovering a skin barrier in the composition of the present invention.\nEpidermal keratinocyte neonatal (NHEK-Np, CC-2507, Lonza Co. Ltd.) was treated with fluo-3 AM (Molecular Probe, USA), an intracellular calcium marker, for 30 minutes in a CO2 incubator and then washed with a KBM (Keratinocyte Basal Media, KBM-2, Lonza Co. Ltd.) medium three times. Measurement of intracellular calcium was performed in the KBM medium and an increase in intracellular calcium due to NAADP was observed. For the measurement of intracellular calcium, a concentration of calcium was calculated through the collection of images at 530 nm by using a confocal microscopy (Nikon, Japan) equipped with a laser source having an excitation wavelength of 488 nm and an emission wavelength of 530 nm Amounts of changes in calcium measured when epidermal keratinocyte neonatal (5×10^5 cells) was treated with 0.1 nM, 1 nM, 10 nM, 100 nM, 1000 nM of NAADP are illustrated in FIG. 1, respectively."}, "[3]": {"test_system": "keratin 1 and keratin 10 in outer skin of hairless mice", "experiment": "Induction of keratinocyte differentiation in hairless mouse skin after topical application (keratin 1/keratin 10 immunostaining)", "type": "in vivo", "protocol": "Hairless mice (SPF/VAF Crl:SKH 1-hr) used in the present tests were purchased from OrientBio (Seongnam, Korea). NAADP, an experiment material of the present invention, used was a product of Sigma-Aldrich Corporation.\nTest materials were prepared by dissolving NAADP for each concentration in a solution, in which 1% dimethyl sulfoxide (DMSO) was added to a phosphate buffer solution, and tests were performed by using a method of applying the test materials on right and left portions of the back of a 6-week-old mouse with cotton swabs. The test materials were applied 5 times for each concentration and the applications were performed twice a day at 9:00 a.m. and 7:00 p.m. Animals having the test materials applied for one week were sacrificed by cervical dislocation, and the skin was dissected to prepare a size of 1 cm×1 cm and was then fixed in a 10% formalin solution over a night. A paraffin block was prepared from the fixed tissues to prepare 5 micrometer slices and the slices were dyed with an antibody (Santa Cruz #SC53251) simultaneously identifying keratin 1 and keratin 10 at a dilution ratio of 1:100. Anti-mouse IgG (invitrogen) combined with Alexa 488 was used as a secondary antibody.\nA solution, in which 1% DMSO was added to a phosphate buffer solution, was used as a control group and solutions prepared by diluting the solution used as the control group with NAADP in various concentrations were used as a test group."}, "[4]": {"conditions": "in vitro, NAADP having a high concentration"}},
  "data": [
    {"substance": "nicotinic acid adenine dinucleotide phosphate [NAADP]", "values": [
      {"measurement": "expression of differentiation markers (involucrin, keratin 1, keratin 10)", "setting": "[1]; 10 pM to 10 μM of NAADP, low calcium concentration, cultured 5 days, FIG. 2", "value": "differentiation markers were expressed"},
      {"measurement": "effect on keratin 1 and keratin 10 relative to the other marker", "setting": "[1]; 10 pM to 10 μM of NAADP, FIG. 2", "value": "better effects"},
      {"measurement": "expression of the markers at high concentration of NAADP", "setting": "[1]; [4]", "value": "decreased"},
      {"measurement": "intracellular calcium at high concentration of NAADP", "setting": "[2]; [4]", "value": "increased"},
      {"measurement": "movement of intracellular calcium", "setting": "[2]; treatment with 1 nM to 100 nM of NAADP, 5×10^5 cells, FIG. 1", "value": "induced"},
      {"measurement": "concentration dependence of keratin 1 and keratin 10 increase in vivo", "setting": "[3]; hairless mouse", "value": "increased by depending on the concentration of NAADP"},
      {"measurement": "concentration at which an increase in the expression level of the differentiation marker appeared", "setting": "[3]; twice a day for one week", "value": "≥ 100", "unit": "nM"},
      {"measurement": "expression levels of keratin 1 and keratin 10 in outer skin versus control group", "setting": "[3]; twice a day for one week, in PBS with 1% DMSO, FIG. 3", "value": "increased"}
    ]}
  ]
}
